The subject of data set [1] is HBV genotype HE974371 (A2). Put plainly: Anti-different genotypic HBV strain activity assay in vitro, transient transfection. Type of data set: cell-based. The conditions noted are these: Hepatitis B virus, HepG2. The method, then:
(§1) Compounds were tested for in vitro activity against different genotypic HBV strains using a transient transfection cell model. HepG2 cells (4×10^4 cells/well) that had been transfected with different HBV genotypic strains were seeded into 96-well plates and cultured overnight at 37° C. in 5% CO2. The next day, fresh cultures containing compounds in different concentrations were added into the culture wells. On the fifth day, the old culture medium in the culture wells was aspirated and removed. The fresh medium containing compounds in different concentrations was added. On the eighth day, supernatants in the culture wells were collected and used to extract HBV DNA in the supernatant. qPCR assay was used to detected HBV DNA content in the HepG2 supernatant.

Data set [2] concerns HBV genotype AB246345 (C). The data set is described as above. The class given is cell-based. The conditions noted are these: Hepatitis B virus, HepG2. The procedure: as §1
Data set [3] has as its system HBV genotype AP007263 (A). The data set is described as above. The settings on record: Hepatitis B virus, HepG2. Type of data set: cell-based. The procedure:
as §1

Data set [4] concerns HBV genotype AB033554 (B). The data set is described as above. The class given is cell-based. The conditions noted are these: Hepatitis B virus, HepG2. The method, then: as §1
In data set [5] the test system is HBV genotype JN406371 (B). Described as above. Type of data set: cell-based. The settings on record: Hepatitis B virus, HepG2. The method, then:
as §1

The subject of data set [6] is HBV genotype AB246346 (C). The description is as above. Type of data set: cell-based. The conditions noted are these: Hepatitis B virus, HepG2. The procedure:
as §1

The subject of data set [7] is HBV genotype U95551 (D). Described as above. The class given is cell-based. The settings on record: Hepatitis B virus, HepG2. The procedure: as §1
The test system of data set [8] is HBV strain U95551 (WT). Put plainly: In vitro anti-nucleoside drug-resistant HBV strain activity experiment, transient transfection. Type of data set: cell-based. The conditions noted are these: Hepatitis B virus, transfected HepG2 cells. The procedure: as §1, with “against nucleoside drug-resistant” for “against different genotypic”, “with nucleoside drug-resistant” for “with different”, “HBV” for “HBV genotypic”, “to detect” for “to detected”

Data set [9] deals with nucleoside drug-resistant HBV strain L180M + M204V. The description is as above. Type of data set: cell-based. The settings on record: Hepatitis B virus, HepG2, 192 h. The procedure: as §1, with “against nucleoside drug-resistant” for “against different genotypic”, “with nucleoside drug-resistant” for “with different”, “HBV” for “HBV genotypic”, “to detect” for “to detected”

For data set [10], the system named is nucleoside drug-resistant HBV strain M204I + V173L. Described as above. Type of data set: cell-based. The conditions noted are these: Hepatitis B virus, HepG2, 192 h. The method, then:
as §1, with “against nucleoside drug-resistant” for “against different genotypic”, “with nucleoside drug-resistant” for “with different”, “HBV” for “HBV genotypic”, “to detect” for “to detected”

Data set [11] has as its system nucleoside drug-resistant HBV strain M204I. The description is as above. Type of data set: cell-based. The settings on record: Hepatitis B virus, HepG2. The method, then:
as §1, with “against nucleoside drug-resistant” for “against different genotypic”, “with nucleoside drug-resistant” for “with different”, “HBV” for “HBV genotypic”, “to detect” for “to detected”

Data set [12] relates to nucleoside drug-resistant HBV strain M204I + S202G + M250V. The data set is described as above. The class given is cell-based. The conditions noted are these: Hepatitis B virus, HepG2, 192 h. The method, then: as §1, with “against nucleoside drug-resistant” for “against different genotypic”, “with nucleoside drug-resistant” for “with different”, “HBV” for “HBV genotypic”, “to detect” for “to detected”

Data set [13] deals with nucleoside drug-resistant HBV strain M204I + S202G. Described as above. Type of data set: cell-based. The conditions noted are these: Hepatitis B virus, HepG2, 192 h. The method, then: as §1, with “against nucleoside drug-resistant” for “against different genotypic”, “with nucleoside drug-resistant” for “with different”, “HBV” for “HBV genotypic”, “to detect” for “to detected”

Data set [14] has as its system HBV (HepG2.2.15 cells). Put plainly: Anti-HBV activity experiment in vitro (HepG2.2.15, HBV DNA in supernatant, qPCR). Type of data set: cell-based. The settings on record: Hepatitis B virus, HBV DNA in supernatant by qPCR, eighth day. The procedure: Compound Dilution: initial concentrations of all compounds used in the anti-HBV activity experiments in vitro were 1 μM, 3-fold diluted into 8 concentrations; initial concentrations of all compounds used in the cytotoxicity assay were 100 μM, 3-fold diluted into 8 concentrations; and the mother liquor of the compound was diluted with DMSO.
Anti-HBV Activity Experiment In Vitro: HepG2.2.15 cells (4×10^4 cells/well) were seeded in 96-well plates and cultured overnight at 37° C. in 5% CO2. The next day, fresh cultures containing compounds in different concentrations were added into the culture wells. On the fifth day, the old culture medium in the culture wells was aspirated and removed. Fresh medium containing compounds in different concentrations was added. On the eighth day, supernatants in the culture wells were collected and used to extract HBV DNA in the supernatant. qPCR assay was used to detect HBV DNA content in the HepG2.2.15 supernatant.
The data analysis and the percentage of inhibition calculation: the percentage of inhibition was calculated by using the following formula: Inhibition %=[(HBV amount in DMSO control−HBV amount in sample)/HBV amount in DMSO control]×100%.

Data set [15] in a line: Pharmacokinetic determination in rats (IV and PO). Type of data set: in vivo, Sprague Dawley rats. The settings on record: rat. The procedure: The pharmacokinetics of the compound of Example 3 (racemate) in the present application was determined in rats.
Test compounds were intravenously (IV) and orally (P0) administered to Sprague Dawley rats once. Blood samples were collected at different time points. LC/MS/MS was used to determine the concentration of the test compounds in the rat plasma after the administration of the test compounds and calculate the relating parameters.
Time points for animal blood collection were: before administration, 5 min, 15 min, 30 min, 1 h, 2 h, 4 h, 6 h, 8 h and 24 h after administration. Approximately 0.3 mL of blood via jugular or other appropriate venipuncture was collected from each animal and anticoagulated with heparin sodium. Blood samples were collected and placed on ice, and plasma was centrifuged (centrifugation: 8000 rpm, 6 min, 4° C.). Plasma samples were stored in a −70° C. freezer before analysis.
50 μL of sample was taken into a 1.5 mL centrifuge tube, and 250 μL of internal standard solution was added. After subjected to vortex for 60 seconds and centrifugation for 5 min (14,000 revolutions/min), 200 μL of supernatant was taken into a 96-well sample plate for analysis.
Mass spectrometer: API 4000, Applied Biosystems, Inc., Electrospray Ionization Source (ESI), Tandem quadrupole mass analyzer.
Mass spectrometry conditions: ion source: electrospray ionization source (ESI); auxiliary gas (Gas1): 60 psi; auxiliary gas (Gas2): 60 psi; curtain gas (CUR): 14 psi; collision gas (CAD): 6; ion source voltage (IS): 5500V; ion source temperature (TEM): 550° C.
Liquid phase conditions: chromatography Column: Thermo AQUASIL C18 (50×2.1 mm); chromatographic mobile phase: A is 0.1% formic acid in water, solution B is 0.1% formic acid in methanol (A:B=80%: 20%-10%: 90%); flow rate: 500 μL/min; injection volume: 1 μL.
According to the drug blood concentration data, the pharmacokinetic parameters of the test compound were calculated using the pharmacokinetic calculation software WinNonlin 5.2 non-compartmental model.

The mark [16] stands for this setting: Sprague Dawley, IV, single administration, plasma.
Where [17] appears, read: Sprague Dawley, PO, single administration, plasma.

SMILES strings stand for the structures.

A word on the EC50: it is the midpoint of the concentration-response curve. For the compound `Nc1ccn([C@@H]2CS[C@H](CO)O2)c(=O)n1` [Lamivudine, 3′-thio-2′,3′-dideoxycytidine, reference compound], the EC50 in data set [1] came out at 136 nM; in [2] it was 97.2 nM; in data set [3], 136 nM; in [4] it was 156 nM; in data set [5] it was 112 nM; in data set [6], 128 nM. The EC50 in data set [7] was 123 nM; in data set [8], 94.9 nM; in data set [9], > 100000 nM; in data set [10] it was > 100000 nM; in data set [11], > 100000 nM; in data set [12], > 100000 nM. The EC50 in data set [13] was > 100000 nM.

As for `O=C1Cc2cc(CCN3C(=O)COC3c3cn(-c4ccc(Br)cc4)nc3-c3ccc(F)cc3)ccc2N1` (racemic) [example 13 racemate], the EC50 amounted to 22 nM in [14]; 32.5 nM in data set [1]; 30.9 nM in data set [2]; 168 nM in data set [3]; 47 nM in data set [4]; 36 nM in data set [5]. The EC50 in [6] is 59.2 nM; in data set [7], 86.8 nM; in data set [8] it was 82 nM; in data set [9], 102 nM; in data set [10], 72.2 nM; in data set [11], 75.8 nM. Moreover, the EC50 in [12] is 87.4 nM; in data set [13], 74.7 nM.

One may read the AUC(0-inf) as total exposure, with the tail of the curve extrapolated. Broadly, the Cmax is the maximum level reached in the sampled fluid or tissue. As a reminder, the Tmax is the time at which the peak concentration occurs. What is called half-life is the time needed for the level to fall by half in the phase considered. On to `O=C1COC(c2cn(-c3ccc(Br)cc3)nc2-c2ccc(F)cc2)N1CCc1ccc2[nH]c(=O)[nH]c2c1` (racemic) [example 3 racemate, 3-(2-(2-oxo-2,3-dihydro-1H-benzo[d]imidazol-5-yl)ethyl)-2-(1-(4-bromophenyl)-3-(4-fluorophenyl)-1H-pyrazol-4-yl)-oxazolidin-4-one], for which the EC50 in data set [14] is 31.2 nM. In addition, in data set [15] (Sprague Dawley, plasma, IV, single administration, read-out: Vz), the Vd was 6.22 L/kg. In [15] (setting [16]), the AUC(0-inf) came out at 3880 ng·h/mL, the peak level (Cmax) was 5460 ng/mL, the Tmax amounted to 0.083 h and the half-life was 3.52 h. In [15] (setting [17]), the AUC(0-inf) came out at 773 ng·h/mL, the peak level (Cmax) was 201 ng/mL, the Tmax amounted to 0.83 h and the half-life is 2.07 h. The same compound yielded a CLz in [15] (IV, single administration) of 21.8 mL/min/kg. For the same compound, in [15] (PO vs IV), the F is 18.55%. The Vz in [15] (PO, single administration) turned out to be 3.58 L/kg.

In the case of `O=C1COC(c2cn(-c3ccc(Br)cc3)nc2-c2ccc(F)cc2)N1CCc1c(F)cc2[nH]c(=O)[nH]c2c1F` (centres unmarked) [example 11, 2-(1-(4-bromophenyl)-3-(4-fluorophenyl)1H-pyrazol-4-yl)-3-(2-(4,6-difluoro-2-carbonyl-2,3-dihydro-1H-benzo[d]imidazol-5-yl)ethyl)oxazoline-4-one], it took 101 nM to reach a half-maximal effect in [14] (EC50).

With `O=C1CO[C@@H](c2cn(-c3ccc(Br)cc3)nc2-c2ccc(F)cc2)N1CCc1ccc2[nH]c(=O)[nH]c2c1` [example 3 S isomer, (S)-3-(2-(2-oxo-2,3-dihydro-1H-benzo[d]imidazol-5-yl)ethyl)-2-(1-(4-bromophenyl)-3-(4-fluorophenyl)-1H-pyrazol-4-yl)-oxazolidin-4-one], the EC50 in data set [14] was > 1000 nM.

In the case of `O=C1CO[C@@H](c2cn(-c3ccc(Br)cc3)nc2-c2ccc(F)cc2)N1CCc1cc2[nH]c(=O)[nH]c2cc1F` [example 8 S isomer, (S)-2-(1-(4-bromophenyl)-3-(4-fluorophenyl)1H-pyrazol-4-yl)-3-(2-(6-fluoro-2-carbonyl-2,3-dihydro-1H-benzo[d]imidazol-5-yl)ethyl)oxazoline-4-one], in data set [14], the EC50 is > 1000 nM.

In the case of `COC(=O)Nc1nc2cc(CCN3C(=O)COC3c3cn(-c4ccc(Br)cc4)nc3-c3ccc(F)cc3)ccc2[nH]1` (centres unmarked) [example 23, Methyl (5-(2-(2-(I -(4-bromophenyl)-3-(4-fluorophenyl)-1H-pyrazol-4-yl)oxazoline-4-one-3-yl)ethyl)-1H-benzo[d]imidazol-2-yl)carbamate], in [14], the EC50 was 127 nM.

Compound `Nc1ccc(CCN2C(=O)COC2c2cn(-c3ccc(Br)cc3)nc2-c2ccc(F)cc2)cc1` (centres unmarked) [example 1 intermediate] showed an EC50 in [14] of 11.8 nM.

In turn, `O=C1COC(c2cn(-c3ccc(Br)cc3)nc2-c2ccc(F)cc2)N1CCc1ccc2[nH]nnc2c1` (centres unmarked) [example 2, 3-(2-(1H-benzo[d][1,2,3]triazol-5-yl)ethyl)-2-(1-(4-bromophenyl)-3-(4-fluoropheny 1)-1H-pyrazol-4-yl)oxazoline-4-one] registered an EC50 in [14] of 68.8 nM.

`O=C1COC(c2cn(-c3ccc(Br)cc3)nc2-c2ccc(F)cc2)N1CCc1ccc2[nH]c(=O)sc2c1` (centres unmarked) [example 18, 2-(1-(4-bromophenyl)-3-(4-fluorophenyl)-1H-pyrazol-4-yl)-3-(2-(2-carbonyl-2,3-dihydrobenzo[d]thiazol-6-yl)ethyl)-4-carbonyl-oxazoline] displayed an EC50 in data set [14] of 60.4 nM.

The values above are taken from US10519145B2, “Pyrazole-oxazolidinone compound for anti-hepatitis B virus” (Shanghai Zhimeng Biopharma Co., Ltd., priority 2016, dated 2019).
